Laboratory results: the SangsterLogP compilation

Legend:
[1] = method code G-GLC, from DOI: 10.1021/je00030a025
[2] = method code G-HPLC, from DOI: 10.1021/je00030a025

SMILES | logP [1] | logP [2]
CCC(=O)CC | 0.99 | 
O=Cc1ccco1 |  | 0.52
ClCCCBr | 2.18 | 
C=CCCBr |  | 2.53
CCCCCCCCBr | 4.89 | 
CCCCCCBr | 3.8 | 
Fc1ccccc1CCl | 2.67 | 
CC(=O)OCCBr |  | 1.11
CCCCCCCC(C)=O |  | 3.18
CCCCCc1ccccc1 |  | 4.9
Fc1cccc(CCl)c1 |  | 2.77

The remaining lines, values ahead:

logP [1] | logP [2] | SMILES
3.99 |  | C=CCCCCC
4.15 |  | CCCCCCCCl
4.7 |  | CCCCCCCI
2.57 |  | CCCCCCCO
5.15 |  | C=CCCCCCCC
5.18 |  | CCCCCCCC
 | 2.76 | CCCCCCC(C)=O
2.73 |  | C#CCCCC
